Laboratory results taken from publication PMC4201147 (Frontiers in Chemistry, 2014).
“Also recorded” adds a separate entry of the source. Read-outs that look alike come from different tables or passages of the source. Values belong to the molecule of their own block, whether it stands above or below them. Positions of bridges follow the written chain, without caps; N, C: chain ends. Non-standard residues stand in square brackets, D forms with d. Residues, ends and D or L forms follow the SMILES beside them. Chains are numbered I, II in the order given. No end group written: not given here. Ac6c = NC1(C(=O)O)CCCCC1; Dab = NCC[C@H](N)C(=O)O; Nva = CCC[C@H](N)C(=O)O

Columns and labels:
MCF-7 cells = experiment: Agonistic activity screening of targeted peptide library in MCF-7 cells; type: cell-based; settings: biological activity screening in MCF-7 cells, targeted agonist library
Text: Based on the success of our first-in-class AdipoR agonist ADP355 and recognizing the need for a similar AdipoR antagonist, we modified the composition of ADP355 to attenuate AdipoR functions and signaling. The starting point of the design was the activity of the 396-member peptide library we made earlier and from which the ADP355 agonist was selected, and a new central hexamer named peptide 3–8 (Table 2). […] While Pro1 in the C-terminal octamer (Pro3 in ADP355) is replaceable, Gly2, Tyr4, Phe6, Ala7, and DSer8 should be kept for binding. Because Nva3 recovers activation, Leu, the original amino acid in native adiponectin, should be used in this position. […] In the new antagonist Pro1 was replaced with 1-amino-cyclohexane carboxylic acid (Chex1), extremely useful as an N-terminal cyclic aliphatic amino acid mimic in designer antibacterial peptides (Cudic et al., [2002]). These considerations led to derivative 400 (ADP400), H-Chex-Gly-Leu-Tyr-DSer-Phe-Ala-DSer-NH2 (we called it Chex-DSer-8), as a potential AdipoR antagonist (Tables 1, 2).

Serum stability = type: in vitro ADME; settings: undiluted pooled mouse serum, RP-HPLC at 214 nm, triplicate; for half-life at 0.075 mg/mL: 10 μL of 3 mg/mL peptide in 390 μL serum, 37°C, 0, 30, 120, 240 min, TCA precipitation
Method: (§1) For serum stability studies (Powell et al., [1993]) 10 μL of an aqueous peptide stock solution (3 mg/mL) was added to 390 μL pooled mouse serum in triplicate. The peptide-serum mixtures were thermostated at 37°C. After 0, 30, 120, and 240 min, 95 μL aliquots were mixed with 25 μL trichloroacetic acid (15%, w/v) and incubated for 10 min on ice. The precipitated proteins were separated by centrifugation (5 min, 12,000 × g, Eppendorf MiniSpin). The supernatant (90 μL) was neutralized with 8.5 μL aqueous sodium hydroxide solution (1 M) and mixed with 3% aqueous acetonitrile containing 0.1% TFA (121.5 μL). After centrifugation (5 min, 12,000 × g, Eppendorf MiniSpin) a 100 μL solution was analyzed by RP-HPLC using a Jupiter C18 column (2.0 mm inner diameter, 150 mm length, 5 μm particle size, 30 nm pore size; Phenomenex, Torrance) on a Beckman Gold HPLC System at 60°C. The gradient from 0.1% TFA in water (eluent A) to 60% acetonitrile in 0.1% aqueous TFA (eluent B) was developed using 1% B/min and the amide bond was monitored at 214 nm.

normal mice = settings: up to a 10 mg/kg bolus intraperitoneal (ip) dose; ref Otvos et al., 2011a; cited from earlier work
Text: In 2011 we reported on the identification of the adiponectin active site and the design and functional characterization of adiponectin-based peptide compounds for the activation of AdipoR using glioma and breast cancer (BC) model systems (Otvos et al., [2011a]). The lead peptide, the 10-mer ADP355, primarily acts through AdipoR1 and induces typical adiponectin signaling pathways in cancer cells (Otvos et al., [2011a]).

[1] = tested on: K562 chronic myeloid leukemia (CML) cells; experiment: K562 CML cell proliferation, 3-day growth inhibition by cell count; type: cell-based, human
Method: (§2) MCF-7 BC and K562 chronic myeloid leukemia (CML) cells were grown in standard RPMI 1640 medium. Seventy-five thousand MCF-7 and 100,000 K-562 cells grown in RPMI 1640 medium containing 10% fetal bovine serum (FBS, for MCF-7) or 0.5% bovine serum albumin (BSA, for K562) were seeded into wells of 24-well culture plates. After 24 h, MCF-7 cells were shifted to K562 medium (serum free). After an additional 24 h, the cultures were treated with various concentrations of peptides or a mixture of peptides for 72 h and counted. The assays were done in triplicates and repeated twice from different cell preparations. The cell numbers were expressed as means ± standard error (SE). Statistical analysis was done with a SlideWrite graphical software package (Encinitas, USA).

[2] = estimated from degradation kinetics in diluted mouse serum; ref Otvos et al., 2011a; cited from earlier work
Text: Peptide ADP355 (355) is remarkably stable in mouse serum (Otvos et al., [2011a]). […] This stability level is quite high among peptide therapeutics, and is li ...

MCF-7 BC cells [3] = experiment: MCF-7 BC cell proliferation, 3-day growth inhibition/promotion by cell count; type: cell-based
Method: as §2

MCF-7 BC cells [4] = settings: ADP400 100 nM with ADP355 100 nM; p = 0.003
[5] = Aggregation / precipitation observed during assays; type: physicochemical; settings: during serum stability assay procedure (mouse serum, TCA precipitation) or under the authors' experimental conditions
Method: as §1

pooled mouse serum = settings: 37°C, up to 240 min
[6] = tested on: K562 chronic myeloid leukemia (CML) cells; settings: compared to unrelated human serum albumin; ref Yokota et al., 2000; cited from earlier work
Text: The cellular models used here were selected among those known to express AdipoR, involve adiponectin in biological responses and yield reproducible results in our hands. Adiponectin protein has been linked to leukemia, lymphoma, and myeloma in individuals with above-average BMI (Obeid and Hebbard, [2012]). Human-origin K562 CML cells express both AdipoR forms although at relatively low levels (Ozturk et al., [2012]).

Molecule: PGLYYF [3–8, new central hexamer]
Agonistic activity (MCF-7 cells): None

Molecule: PGLYYFAYHI [compound 26, member of targeted agonist library]
Agonistic activity (MCF-7 cells): Normal

Molecule: NIP[Nva]LYYFAY [compound 157, member of targeted agonist library]
Agonistic activity (MCF-7 cells): Increased

Molecule: CCC[C@H](NC(=O)[C@@H]1CCCN1C(=O)[C@@H](NC(=O)[C@H](N)CC(N)=O)[C@@H](C)CC)C(=O)N[C@@H](CC(C)C)C(=O)N[C@@H](Cc1ccc(O)cc1)C(=O)N[C@H](CO)C(=O)N[C@@H](Cc1ccccc1)C(=O)N[C@@H](C)C(=O)N[C@H](CO)C(N)=O [ADP355] (H-[dN]IP[Nva]LY[dS]FA[dS]-NH2)
half-life at 0.075 mg/mL (Serum stability): 180 min
toxic properties to normal mice (normal mice): no toxic properties
IC50 ([1]; K562, 72 h treatment, 10 nM–10 μM peptide, first assay, IC50 halfway between uninhibited growth and maximal growth inhibition, read-out: relative IC50, inhibition of K562 proliferation): 200 nM
half-life in whole plasma (estimated) [2]: 75 min

half-life at 0.075 mg/mL (Serum stability): 55 min
remaining at 2 h, 0.075 mg/mL (Serum stability; 37°C, 2 h, read-out: intact peptide still present after 2 h incubation): 16%
Molecule: CCC[C@H](NC(=O)[C@@H]1CCCN1C(=O)[C@@H](NC(=O)[C@H](N)CC(N)=O)[C@@H](C)CC)C(=O)N[C@@H](CC(C)C)C(=O)N[C@@H](Cc1ccc(O)cc1)C(=O)N[C@H](CO)C(=O)N[C@@H](Cc1ccccc1)C(=O)N[C@@H](C)C(=O)N[C@H](CO)C(=O)N[C@@H](Cc1c[nH]cn1)C(=O)N1CCC[C@H]1C(=O)NCC[C@H](NC(=O)[C@@H]1CCCN1C(=O)[C@H](Cc1c[nH]cn1)NC(=O)[C@@H](CO)NC(=O)[C@H](C)NC(=O)[C@H](Cc1ccccc1)NC(=O)[C@@H](CO)NC(=O)[C@H](Cc1ccc(O)cc1)NC(=O)[C@H](CC(C)C)NC(=O)[C@H](CCC)NC(=O)[C@@H]1CCCN1C(=O)[C@@H](NC(=O)[C@H](N)CC(N)=O)[C@@H](C)CC)C(N)=O [ADP399] (I: H-[dN]IP[Nva]LY[dS]FA[dS]HP[Dab]-NH2 / II: H-[dN]IP[Nva]LY[dS]FA[dS]HP; amide I:13-II:C)

Molecule: leptin: Leptin protein, positive control for exogenous mitogen actions [reference compound]
promotion of MCF-7 cell growth (MCF-7 BC cells [3]; 10 nM, positive control for exogenous mitogen): 10%

Molecule: [dN]IPGLYGFA[dS] [compound 91, member of targeted agonist library]
Agonistic activity (MCF-7 cells): Normal

Molecule: HCNIPGLYYF [compound 24, member of targeted agonist library]
Agonistic activity (MCF-7 cells): Normal

Molecule: CC(C)C[C@H](NC(=O)CNC(=O)C1(N)CCCCC1)C(=O)N[C@@H](Cc1ccc(O)cc1)C(=O)N[C@H](CO)C(=O)N[C@@H](Cc1ccccc1)C(=O)N[C@@H](C)C(=O)N[C@H](CO)C(N)=O [ADP400] (H-[Ac6c]GLY[dS]FA[dS]-NH2)
effect on MCF-7 cell growth without ADP355 present (MCF-7 BC cells [3]; 100 nM, alone, compared with co-treatment, which reached the growth level of 10 nM leptin): promoted cell growth to an identical degree
effect on ADP355-induced MCF-7 growth inhibition (MCF-7 BC cells [4]): completely ameliorated

Molecule: NIPGLY[dS]FAY [compound 223, member of targeted agonist library]
Agonistic activity (MCF-7 cells): Weakest among P25 analogs

Molecule: PGL[dS]YF[Nva]YHI [compound 290, member of targeted agonist library]
Agonistic activity (MCF-7 cells): None

aggregation / precipitation ([5]; listed as cyclic dimer): precipitated during the assay procedure
IC50 ([1]; 72 h): 300 nM
Molecule: CCC[C@@H]1NC(=O)[C@@H]2CCCN2C(=O)[C@H]([C@@H](C)CC)NC(=O)[C@@H](CC(N)=O)NC(=O)[C@H](CC(=O)O)NC(=O)[C@H](Cc2c[nH]cn2)NC(=O)[C@@H](CO)NC(=O)[C@H](C)NC(=O)[C@H](Cc2ccccc2)NC(=O)[C@@H](CO)NC(=O)[C@H](Cc2ccc(O)cc2)NC(=O)[C@H](CC(C)C)NC(=O)[C@H](CCC)NC(=O)[C@@H]2CCCN2C(=O)[C@H]([C@@H](C)CC)NC(=O)[C@@H](CC(N)=O)NC(=O)[C@@H]2CCCN2C(=O)[C@H](Cc2c[nH]cn2)NC(=O)[C@@H](CO)NC(=O)[C@H](C)NC(=O)[C@H](Cc2ccccc2)NC(=O)[C@@H](CO)NC(=O)[C@H](Cc2ccc(O)cc2)NC(=O)[C@H](CC(C)C)NC1=O [compound 398]
aggregation / precipitation [5]: did aggregate during the serum stability assay
concentration of maximal effect on K562 proliferation ([1]; K562, 3-day assay): 1 µM

Molecule: NIPGLYYFAY [compound 25]
Agonistic activity (MCF-7 cells): Normal

Molecule: HCN[Nva]PG[Nva]YYF [compound 288, member of targeted agonist library]
Agonistic activity (MCF-7 cells): Reduced

Molecule: HCN[Nva]PGLYYF [compound 156, member of targeted agonist library]
Agonistic activity (MCF-7 cells): None

cleaved bond (pooled mouse serum): Leu-Tyr; also recorded: Tyr-DSer
Molecule: (H-DAsn-Ile-Pro-Nva-Leu-Tyr-DSer-Phe-Ala-DSer-His-Pro)2-Dab-NH2 (branched)

B1: adiponectin protein: full-sized adiponectin protein, 244 amino acid cytokine (protein, UniProt Q15848 1-244, looked up)
chain: MLLLGAVLLLLALPGHDQETTTQGPGVLLPLPKGACTGWMAGIPGHPGHNGAPGRDGRDGTPGEKGEKGDPGLIGPKGDIGETGVPGAEGPRGFPGIQGRKGEPGEGAYVYRSAFSVGLETYVTIPNMPIRFTKIFYNQQNHYDGSTGKFHCNIPGLYYFAYHITVYMKDVKVSLFKKDKAMLFTYDQYQENNVDQASGSVLLHLEVGDQVWLQVYGEGERNGLYADNDNDSTFTGFLLYHDTN
modifications: full-length
notes: full-sized adiponectin protein, 244 amino acid cytokine
inhibition of relative proliferation rate of K562 cells [6]: 9%
